Test results taken from publication PMC6009911, “Inhibition of human cytochromes P450 2A6 and 2A13 by flavonoids, acetylenic thiophenes and sesquiterpene lactones from Pluchea indica and Vernonia cinerea” (Journal of Enzyme Inhibition and Medicinal Chemistry, 2017).
Like-named read-outs stand apart in the source and are kept apart here. Marks after values point to notes of the source that are not given here.

Legend:
CYP2A13 [1] = target: T1, CYP2A13 (Homo sapiens, UniProt Q16696); assay: Inhibition of CYP2A13-mediated coumarin 7-hydroxylation, enzymatic reconstitution assay; assay type: biochemical; conditions: for Ki: coumarin 0–40 µM
T1 construct: made in house
T1 sequence (Q16696 1-494): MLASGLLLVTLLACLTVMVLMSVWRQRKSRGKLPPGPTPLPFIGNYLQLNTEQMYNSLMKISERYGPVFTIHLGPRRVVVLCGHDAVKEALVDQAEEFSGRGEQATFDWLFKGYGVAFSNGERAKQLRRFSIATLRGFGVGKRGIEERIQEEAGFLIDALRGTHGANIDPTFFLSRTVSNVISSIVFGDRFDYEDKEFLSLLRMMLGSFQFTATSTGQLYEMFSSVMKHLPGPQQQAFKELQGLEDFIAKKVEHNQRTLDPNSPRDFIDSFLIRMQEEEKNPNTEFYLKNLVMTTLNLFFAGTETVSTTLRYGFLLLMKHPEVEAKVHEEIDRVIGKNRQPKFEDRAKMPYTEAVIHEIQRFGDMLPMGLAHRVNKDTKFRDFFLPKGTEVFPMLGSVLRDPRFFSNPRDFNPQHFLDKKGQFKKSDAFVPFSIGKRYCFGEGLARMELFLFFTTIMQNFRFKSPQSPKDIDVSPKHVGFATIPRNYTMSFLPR
Experimental: Inhibitory effect of plant extracts, fractions, subfractions and constituents was determined by inhibition assay on CYP2A6- and CYP2A13-mediated coumarin 7-hydroxylation. The recombinant human CYP2A6, CYP2A13 and rat NADPH-dependent cytochrome P450 oxidoreductase (CYPOR) proteins were expressed, purified, according to the methods previously described. […] Rate of 7-hydroxycoumarin product formation was measured on spectrofluorometer (Shimadzu, Kyoto, Japan) at λex = 355 nm, λem = 460 nm. Inhibition effects were determined by incubation with extracts, fractions or purified compounds with coumarin substrate in the reaction mixture and calculated as per cent relative inhibition compared with vehicle control reaction[20] and IC50 values were calculated using GraphPad Prism 5 (GraphPad Software Inc., La Jolla, CA).
(§1) MBI requires NADPH and time to generate reactive intermediate as inhibitor and ultimately inactivates the enzyme. MBI was evaluated by pre-incubation with each test inhibitor in the reaction at different time periods (0, 10, 20 and 30 min) in the presence of NADPH for time-dependent assay, as described. The apparent inactivation constants, KI and Kinact, were obtained from double reciprocal plots of kobs versus inhibitor concentrations by linear regression analysis on GraphPad Prism 5. Methoxsalen was used as a control mechanism-based inhibitor for time- and NADPH-dependent inhibition assays.

CYP2A6 [2] = target: T2, CYP2A6 (Homo sapiens, UniProt P11509); parameters: made in house; conditions: ref Prasopthum et al., 2015, cited from earlier work; for Ki: coumarin 0–40 µM
T2 sequence (P11509 1-494): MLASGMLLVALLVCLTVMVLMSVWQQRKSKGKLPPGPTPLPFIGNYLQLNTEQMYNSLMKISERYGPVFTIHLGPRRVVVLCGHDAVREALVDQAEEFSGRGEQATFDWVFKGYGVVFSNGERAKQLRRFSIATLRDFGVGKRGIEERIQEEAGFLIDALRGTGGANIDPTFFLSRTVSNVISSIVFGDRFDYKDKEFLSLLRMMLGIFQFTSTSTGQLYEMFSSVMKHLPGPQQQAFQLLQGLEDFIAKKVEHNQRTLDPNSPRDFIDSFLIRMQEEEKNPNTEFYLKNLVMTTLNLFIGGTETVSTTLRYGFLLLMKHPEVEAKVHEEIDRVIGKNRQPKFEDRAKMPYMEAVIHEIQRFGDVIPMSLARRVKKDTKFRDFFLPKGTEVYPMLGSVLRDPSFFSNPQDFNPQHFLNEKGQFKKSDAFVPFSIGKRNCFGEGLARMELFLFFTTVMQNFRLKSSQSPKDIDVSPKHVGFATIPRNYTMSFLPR

CYP2A13 [3] = target: T1, CYP2A13; assay: Effects of trapping agents and dialysis on inactivation of CYP2A13; assay type: biochemical; conditions: CYP2A13 inhibition reaction mixture, probe coumarin; for activity at 10 µM: compound 10 µM; for activity at 20 µM: compound 20 µM
Experimental: as §1
To explore whether inactivation of CYP2As by thiophenes 9–11 and of CYP2A13 by hirsutinolides 5-8 could be reversed, the removal of reversible inhibitory compounds by dialysis and addition of trapping agents (GSH, semicarbazide, catalase or potassium ferricyanide) in the inhibition reaction mixture were performed. […] Similarly, mechanism-based inactivation of both CYP2A6 and CYP2A13 by thiophenes 9–11 could not be reversed (Table 3).

CYP2A6 [4] = target: T2, CYP2A6; conditions: cited from earlier work
CYP2A13 [5] = target: T1, CYP2A13; assay: Mechanism-based (time- and NADPH-dependent) inactivation of CYP2A13; assay type: biochemical; conditions: for kinact / KI (inactivation): pre-incubation 0-30 min with NADPH; for KI (inactivation): read-out: CYP2A13 KI (inactivation constant)
Experimental: as §1

[6] = 10-min pre-incubation in the presence of NADPH, read-out: IC50 CYP2A13 Pre-incubation
[7] = coincubation, coumarin 2 µM, read-out: IC50 CYP2A13 Coincubation
[8] = read-out: Per cent remaining activity, 70 μM K3Fe(CN)6
[9] = read-out: Per cent remaining activity, 2 mM GSH
[10] = read-out: Per cent remaining activity, 5 mM semicarbazide
[11] = read-out: Per cent remaining activity, 2000 U catalase
[12] = read-out: Per cent remaining activity, Dialysis (+) NADPH
[13] = read-out: Per cent remaining activity, Dialysis (−) NADPH
[14] = read-out: Per cent remaining activity, Pre-incubation
[15] = 10-min pre-incubation in the presence of NADPH, read-out: IC50 CYP2A6 Pre-incubation
[16] = coincubation, coumarin 2 µM, read-out: IC50 CYP2A6 Coincubation
[17] = read-out: CYP2A6 KI (inactivation constant), ref Prasopthum et al., 2015
[18] = read-out: inactivation kinetic values (KI) against CYP2A6, literature values

Structure (SMILES)	CYP2A13 Mode of inhibition (CYP2A13 [1])	IC50 (CYP2A13 [1]; [6])	IC50 (CYP2A13 [1]; [7])	Ki (CYP2A13 [1])	CYP2A6 Mode of inhibition (CYP2A6 [2])	IC50 (CYP2A6 [2]; [15])	IC50 (CYP2A6 [2]; [16])	Ki (CYP2A6 [2])	KI (inactivation) (CYP2A6 [4]; [17])	CYP2A6 Kinact (CYP2A6 [4]; ref Prasopthum et al., 2015)	kinact (CYP2A13 [5])	KI (inactivation) (CYP2A13 [5])	other results
O=c1cc(-c2ccc(O)cc2)oc2cc(O)cc(O)c12 [Apigenin 1, apigenin]	Mixed type	0.04 ± 0.01 µM	0.05 ± 0.01 µM	0.014 ± 0.002 µM	Mixed type^b								
C=C(C)C(=O)OC1CC(C)C2(O)CCC(C)(/C=C3/OC(=O)C(COC(C)=O)=C31)O2 (stereo not drawn) [Hirsutinolide 5, 8α-(2-methylacryloyloxy)-hirsutinolide-13-O-acetate]	Mixed type	4.5 ± 0.18 µM	16.4 ± 3.1 µM	5.61 ± 0.99 µM	Mixed type^b	8.64 ± 0.37 µM	22.3 ± 2.5 µM	15.1 ± 2.1 µM	7.45 ± 0.62 µM	0.05 ± 0.01^b	0.0005 s⁻¹	0.92 ± 0.17 µM	activity at 10 µM (CYP2A13 [3]; [8]): 24.1 ± 0.62%; activity at 10 µM (CYP2A13 [3]; [9]): 28.2 ± 6.54%; activity at 10 µM (CYP2A13 [3]; [10]): 24.4 ± 2.54%; activity at 10 µM (CYP2A13 [3]; [11]): 20.3 ± 6.24%; activity at 10 µM (CYP2A13 [3]; [12]): 18.6 ± 0.94%; activity at 10 µM (CYP2A13 [3]; [13]): 86 ± 6.65%; activity at 10 µM (CYP2A13 [3]; [14]): 29.3 ± 2.53%
C=C(CO)C(=O)OC1CC(C)C2(O)CCC(C)(/C=C3/OC(=O)C(COC(C)=O)=C31)O2 (stereo not drawn) [Hirsutinolide 7, 8α-(4-hydroxymethacryloyloxy)-hirsutinolide-13-O-acetate]	Mixed type	10.5 ± 0.49 µM	23.3 ± 1.35 µM	12.6 ± 1.26 µM	Mixed type^b	6.8 ± 0.77 µM	32.7 ± 2.2 µM	20.4 ± 5.4 µM	5.32 ± 0.29 µM	0.03 ± 0.01^b	0.001 s⁻¹	8.67 ± 0.15 µM	activity at 10 µM (CYP2A13 [3]; [8]): 21.4 ± 2.75%; activity at 10 µM (CYP2A13 [3]; [9]): 18.3 ± 1.54%; activity at 10 µM (CYP2A13 [3]; [10]): 26.6 ± 1.25%; activity at 10 µM (CYP2A13 [3]; [11]): 20.9 ± 5.18%; activity at 10 µM (CYP2A13 [3]; [12]): 21.4 ± 4.45%; activity at 10 µM (CYP2A13 [3]; [13]): 93.3 ± 2.1%; activity at 10 µM (CYP2A13 [3]; [14]): 22.2 ± 1.88%; KI, CYP2A13 (in Figure 2) (CYP2A13 [5]; time- and concentration-dependent inactivation): 8.67 ± 0.15
CC(=O)OCC1=C2/C(=C\C3(C)CCC(O)(O3)C(C)CC2OC(=O)/C(C)=C/CO)OC1=O (stereo not drawn) [Hirsutinolide 8, 8α-(4-hydroxytigloyloxy)-hirsutinolide-13-O-acetate]	Mixed type	15.9 ± 0.67 µM	36.1 ± 1.39 µM	15.8 ± 2.5 µM	Mixed type^b	13.1 ± 2.4 µM	64.5 ± 5.8 µM	42.3 ± 8.4 µM	7.64 ± 1.24 µM	0.09 ± 0.01^b	0.00167 s⁻¹	8.62 ± 0.37 µM	activity at 20 µM (CYP2A13 [3]; [8]): 21.8 ± 1.85%; activity at 20 µM (CYP2A13 [3]; [9]): 25.8 ± 4.2%; activity at 20 µM (CYP2A13 [3]; [10]): 20.7 ± 2.92%; activity at 20 µM (CYP2A13 [3]; [11]): 19.4 ± 1.39%; activity at 20 µM (CYP2A13 [3]; [12]): 18.4 ± 1.1%; activity at 20 µM (CYP2A13 [3]; [13]): 92.4 ± 4.03%; activity at 20 µM (CYP2A13 [3]; [14]): 23.9 ± 3.17%
O=c1c(O)c(-c2ccc(O)c(O)c2)oc2cc(O)cc(O)c12 [Quercetin 4, quercetin]	Competitive	0.74 ± 0.02 µM	0.8 ± 0.01 µM	0.11 ± 0.01 µM	Competitive^b								
C/C=C(/C)C(=O)O[C@H]1Cc2cc3ccc(=O)oc3cc2OC1(C)C [decursinol angelate, reference compound]													KI (inactivation) (CYP2A6 [4]; [18]): 2.42 µM
C#CCN(C)[C@H](C)Cc1ccccc1 [selegiline, reference compound]													KI (inactivation) (CYP2A6 [4]; [18]): 15.6 µM
